Experimental data published in patent publication US7713994B2 (Wyeth LLC, priority 2005, dated 2010).
Where two headings read alike, the source gives them in different places.

What was measured:
MCF-7 = test: Cytotoxicity assay (SRB), MCF-7; assay type: cell-based; conditions: Homo sapiens, MCF7, 72 h, MCF-7 cells, SRB, read-out: In Vitro Cellular Activity IC50 MCF-7
Method in brief: (§1)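 Percentage survival is derived from SRB absorbance (540 nm) versus untreated cells. Exposures were 3 days, except 6 days for BT474, at 37 °C and 7% CO2.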

LoVo = test: Cytotoxicity assay (SRB), LoVo; assay type: cell-based; conditions: Homo sapiens, LoVo, 72 h, LoVo cells, SRB, read-out: In Vitro Cellular Activity IC50 LOVO
Method in brief: as §1

HCT-116 = test: Cytotoxicity assay (SRB), HCT-116; assay type: cell-based; conditions: Homo sapiens, HCT-116, 72 h, HCT116 cells, SRB, read-out: In Vitro Cellular Activity IC50 HCT116
Method in brief: as §1

cyclin E/CDK2 enzyme = target: T1, cyclin E/CDK2 enzyme (Homo sapiens, UniProt P24941); test: CDK2 ELISA kinase assay (phospho-Rb ser 795 detection); assay type: biochemical
T1 construct: made in house; host or cells: Sf9 insect cells, recombinant baculovirus
Method in brief: (§2)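 Wells were coated overnight with GST-Rb C-terminal fragment, then blocked. Compound (10 ug/ml final) and cyclin/CDK enzyme from baculovirus-infected Sf9 cells with 200 μM ATP reacted 1 h at 30° C. Ser795 phosphorylation was detected by ELISA at 450 nm.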

cyclin D1/cdk 4 enzyme = target: T2, cyclin D1/cdk 4 enzyme (Homo sapiens, UniProt P11802); test: CDK4 ELISA kinase assay (phospho-Rb ser 795 detection); assay type: biochemical
T2 construct: made in house; host or cells: Sf9 insect cells, recombinant baculovirus
Method in brief: as §2

cyclin B/CDK1 enzyme = target: T3, cyclin B/CDK1 enzyme (Homo sapiens, UniProt P06493); test: CDK1 ELISA kinase assay (phospho-Rb ser 795 detection); assay type: biochemical
T3 construct: purchased New England BioLabs; host or cells: Sf9 insect cells, recombinant baculovirus
Method in brief: as §2

BT474 = test: Cytotoxicity assay (SRB), BT474; assay type: cell-based
Method in brief: as §1

[1] = In Vitro Enzyme Assays, read-out: CDK2 IC50
[2] = In Vitro Enzyme Assays, 200 μM ATP, read-out: CDK4 IC50
[3] = In Vitro Enzyme Assays, read-out: CDK1 IC50
[4] = Homo sapiens, BT-474, 144 h, BT474 cells, SRB, 6 days; read-out: In Vitro Cellular Activity IC50 BT474
[5] = In Vitro Enzyme Assay, cyclin E/CDK2, read-out: CDK2 IC50
[6] = In Vitro Enzyme Assay, cyclin D1/cdk 4, read-out: CDK4 IC50
[7] = In Vitro Enzyme Assay, cyclin B/CDK1, read-out: CDK1 IC50
[8] = Homo sapiens, BT-474, 144 h, BT474 cells, 6 days, SRB; read-out: In Vitro Cellular Activity IC50 BT474

T2 sequence (P11802 whole entry, species assumed): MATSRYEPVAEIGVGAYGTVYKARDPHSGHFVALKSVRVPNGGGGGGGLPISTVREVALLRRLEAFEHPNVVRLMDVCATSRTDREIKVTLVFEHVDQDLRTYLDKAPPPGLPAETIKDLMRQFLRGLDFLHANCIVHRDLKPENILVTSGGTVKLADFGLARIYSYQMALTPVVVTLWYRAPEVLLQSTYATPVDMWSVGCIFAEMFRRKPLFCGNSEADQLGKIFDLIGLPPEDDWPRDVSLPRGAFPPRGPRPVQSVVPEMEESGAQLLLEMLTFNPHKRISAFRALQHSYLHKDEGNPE
T2 sequence (P24385 whole entry partner, species assumed): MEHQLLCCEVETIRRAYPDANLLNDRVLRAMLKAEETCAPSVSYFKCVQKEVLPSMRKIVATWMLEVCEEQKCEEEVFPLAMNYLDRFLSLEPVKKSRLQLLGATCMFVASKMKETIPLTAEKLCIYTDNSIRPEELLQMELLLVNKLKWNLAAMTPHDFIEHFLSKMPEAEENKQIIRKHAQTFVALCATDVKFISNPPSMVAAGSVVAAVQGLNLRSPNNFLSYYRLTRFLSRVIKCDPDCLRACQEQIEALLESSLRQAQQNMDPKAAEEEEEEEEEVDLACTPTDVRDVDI
T3 sequence (P06493 whole entry): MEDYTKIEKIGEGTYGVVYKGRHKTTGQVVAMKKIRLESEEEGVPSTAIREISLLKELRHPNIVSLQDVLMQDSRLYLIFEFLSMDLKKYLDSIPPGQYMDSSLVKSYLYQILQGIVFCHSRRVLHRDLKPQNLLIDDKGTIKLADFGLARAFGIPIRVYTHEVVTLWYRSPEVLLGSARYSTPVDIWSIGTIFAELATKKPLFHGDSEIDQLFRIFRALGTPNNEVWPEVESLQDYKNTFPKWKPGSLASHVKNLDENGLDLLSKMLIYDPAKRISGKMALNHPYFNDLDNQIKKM
T3 sequence (P14635 whole entry partner): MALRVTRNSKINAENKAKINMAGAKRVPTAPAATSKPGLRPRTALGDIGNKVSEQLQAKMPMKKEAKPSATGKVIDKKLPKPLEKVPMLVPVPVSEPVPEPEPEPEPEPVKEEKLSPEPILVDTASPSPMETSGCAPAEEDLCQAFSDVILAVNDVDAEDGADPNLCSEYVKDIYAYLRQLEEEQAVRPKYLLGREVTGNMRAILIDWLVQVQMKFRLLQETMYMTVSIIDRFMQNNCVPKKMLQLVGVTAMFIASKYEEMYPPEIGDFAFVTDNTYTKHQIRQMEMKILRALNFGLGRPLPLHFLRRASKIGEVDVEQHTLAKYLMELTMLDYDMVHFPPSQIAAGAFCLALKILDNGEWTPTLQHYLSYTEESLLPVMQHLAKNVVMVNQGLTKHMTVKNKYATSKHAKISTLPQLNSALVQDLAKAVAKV

Structure (SMILES)	IC50 (MCF-7; three days) [µM]	IC50 (LoVo; three days) [µM]	IC50 (HCT-116; three days) [µM]	IC50 (cyclin E/CDK2 enzyme; [1]) [µM]	IC50 (cyclin D1/cdk 4 enzyme; [2]) [µM]	IC50 (cyclin B/CDK1 enzyme; [3]) [µM]	IC50 (BT474; [4]) [µM]	IC50 (MCF-7; 3 days) [µM]	IC50 (LoVo; 3 days) [µM]	IC50 (HCT-116; 3 days) [µM]	IC50 (cyclin E/CDK2 enzyme; [5]) [µM]	IC50 (cyclin D1/cdk 4 enzyme; [6]) [µM]	IC50 (cyclin B/CDK1 enzyme; [7]) [µM]	IC50 (BT474; [8]) [µM]	IC50 (cyclin E/CDK2 enzyme; In Vitro Enzyme Assay, read-out: CDK2 IC50) [µM]	IC50 (cyclin D1/cdk 4 enzyme; In Vitro Enzyme Assay, read-out: CDK4 IC50) [µM]	IC50 (cyclin B/CDK1 enzyme; In Vitro Enzyme Assay, read-out: CDK1 IC50) [µM]
CC(=O)Nc1cc(CN/C=C2\C(=O)NC(=O)c3ccc(Br)cc32)cc(O)c1O [Example 213]	> 50	48	> 50	> 50	0.19	> 50	> 50										
CN(C)NC(=O)c1ccc(N/C=C2\C(=O)NC(=O)c3ccc(Br)cc32)cc1 [Example 280, 4-{[(Z)-(6-Bromo-1,3-dioxo-2,3-dihydroisoquinolin-4(1H)-ylidene)methyl]amino}-N′,N′-dimethylbenzohydrazide]	17	32	21	4.5	29	> 50	28										
COc1ccc(CNC=C2C(=O)NC(=O)c3ccc(-c4ccccc4)cc32)cc1O [Example 832, 4-[(3-Hydroxy-4-methoxy-benzylamino)-methylene]-6-phenyl-4H-isoquinoline-1,3-dione]								11.8	8.5	9.9	25.9	0.01	34.7	14.9			
CN1CCN(c2ccc(NC=C3C(=O)NC(=O)c4ccc(C=Cc5cnccn5)cc43)cc2)CC1 [Example 678, 4-{[4-(4-Methyl-piperazin-1-yl)-phenylamino]-methylene}-6-(2-pyrazin-2-yl-vinyl)-4H-isoquinoline-1,3-dione]								10.5	6.1	3.5	> 50	1.16	14.4	9.1			
CC(C)(C)c1ccc2c(c1)/C(=C/NCc1cc(O)c(-c3ccoc3)cc1F)C(=O)NC2=O [Example 534, 6-tert-Butyl-4-[(2-fluoro-4-furan-3-yl-5-hydroxy-benzylamino)-methylene]-4H-isoquinoline-1,3-dione]								2.6	1.2	1.6	> 50	0.09	> 50	0.73			
O=C1NC(=O)c2ccc(I)cc2/C1=C/Nc1ccc(CN2CCC[C@H]2CO)cc1 [Example 376, L-4-{[4-(2-Hydroxymethyl-pyrrolidin-1-ylmethyl)-phenylamino]-methylene}-6-iodo-4H-isoquinoline-1,3-dione]	0.55	2.6	3.6	> 50	0.43	> 50	0.37										
O=C1NC(=O)c2ccc(Br)cc2/C1=C/NCc1ccc(OCc2ccccc2)c(O)c1 [Example 147, (4Z)-4-({[4-(Benzyloxy)-3-hydroxybenzyl]amino}methylene)-6-bromoisoquinoline-1,3(2H,4H)-dione]	36	40	38	27.7	4.6	> 50	> 50										
O=C1NC(=O)c2ccc(-c3ccoc3)cc2/C1=C/Nc1ccc(CN2CCC(CCO)CC2)cc1 [Example 491, (4Z)-6-(3-Furyl)-4-{[(4-{[4-(2-hydroxyethyl)piperidin-1-yl]methyl}phenyl)amino]methylene}isoquinoline-1,3(2H,4H)-dione]								1	2.7	3.5	> 50	0.05	> 50	1.2			
O=C1NC(=O)c2ccc(I)cc2/C1=C/Nc1ccc(N2CCNCC2)cc1 [Example 378, (4Z)-6-Iodo-4-{[(4-piperazin-1-ylphenyl)amino]methylene}isoquinoline-1,3(2H,4H)-dione]	1.1	2.6	1.5	15.4	0.65	20.4	2.9										
CN1CCN(c2ccc(N/C=C3\C(=O)NC(=O)c4ccc(-c5ccc(OC(F)(F)F)cc5)cc43)cc2)CC1 [Example 298, (4Z)-4-({[4-(4-Methylpiperazin-1-yl)phenyl]amino}methylene)-6-[4-(trifluoromethoxy)phenyl]isoquinoline-1,3(2H,4H)-dione]	2.8	9.8	2.1	> 50	29	40.6	6.3										
COCC(C)N1CCN(c2ccc(N/C=C3\C(=O)NC(=O)c4ccc(I)cc43)cc2)CC1 (stereo not drawn) [Example 399, (4Z)-6-Iodo-4-[({4-[4-(2-methoxy-1-methylethyl)piperazin-1-yl]phenyl}amino)methylene]isoquinoline-1,3(2H,4H)-dione]				> 50	0.34	> 50		5.4	7	3				7.57			
CN(Cc1ccc(NC=C2C(=O)NC(=O)c3ccccc32)cc1)C1CCCCC1 [Example 577, 4-({4-[(Cyclohexyl-methyl-amino)-methyl]-phenylamino}-methylene)-4H-isoquinoline-1,3-dione]								20.1	14.4	9.6	> 50	34	17.7	24.5			
CSc1ccc(-c2ccc3c(c2)C(=CNCc2ccc(O)c(O)c2)C(=O)NC3=O)cc1 [Example 792, 4-[(3,4-Dihydroxy-benzylamino)-methylene]-6-(4-methylsulfanyl-phenyl)-4H-isoquinoline-1,3-dione]								13.1	15.6	14.7	22.6	0.47	> 50	41			
CN1CCN(c2ccc(NC=C3C(=O)NC(=O)c4ccc(-c5ccc(C(=O)O)cc5)cc43)cc2)CC1 [Example 685, 4-(4-{[4-(4-Methyl-piperazin-1-yl)-phenylamino]-methylene}-1,3-dioxo-1,2,3,4-tetrahydro-isoquinolin-6-yl)-benzoic acid]								22.1	25	18.4	> 50	1.51	> 50	36.9			
COCCn1ccc(-c2ccc3c(c2)C(=CNc2ccc(N4CCN(C)CC4)cc2)C(=O)NC3=O)c1 [Example 843, 6-[1-(2-Methoxy-ethyl)-1H-pyrrol-3-yl]-4-{[4-(4-methyl-piperazin-1-yl)-phenylamino]-methylene}-4H-isoquinoline-1,3-dione]								47.1	> 50	54.3	> 50	0.18	> 50	> 50			
CC(=O)Oc1cc(CN/C=C2\C(=O)NC(=O)c3ccc(Br)cc32)cc2c1OC(C)(C)O2 [Example 872, 6-({[(Z)-(6-Bromo-1,3-dioxo-2,3-dihydroisoquinolin-4(1H)-ylidene)methyl]amino}methyl)-2,2-dimethyl-1,3-benzodioxol-4-yl acetate]								34.8	47.1	28.6				> 50	23.6	34.7	1.2
O=C1NC(=O)c2ccc(Br)cc2/C1=C/Nc1ccc(-n2ccnc2)cc1 [Example 260, (4Z)-6-Bromo-4-({[4-(1H-imidazol-1-yl)phenyl]amino}methylene)isoquinoline-1,3(2H,4H)-dione]	> 50	> 50	5.4	14.7	22.6	> 50	> 50										
CCN1CCN(c2ccc(N/C=C3\C(=O)NC(=O)c4ccc(I)cc43)cc2)CC1 [Example 393, (4Z)-4-({[4-(4-Ethylpiperazin-1-yl)phenyl]amino}methylene)-6-iodoisoquinoline-1,3(2H,4H)-dione]				> 50	0.47	> 50		2.7	6.8	2.8				5.9			
